Series [1] has as its system Dogs. The class given is in vivo. The settings on record: 30 nmol/kg s.c.
Series [2] in a line: physchem. The method, boiled down: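 Solubility at pH 7.4 determined by stepwise addition of 200 mM phosphate buffer in 100 μL increments to 3 mg peptide, mixing briefly each time, until no insoluble material remained, then measured by liquid chromatography.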
The subject of series [3] is female beagle dogs. Kind of series: PYY-1119-induced vomiting in dogs. The class given is in vivo. The settings on record: 3 nmol/kg s.c., 72 hours post-dose (lower line). The procedure:
The GIPR agonist peptide compounds of the present disclosure or vehicle (0.09% [w/v] Tween 80/10% DMSO/PBS) were administered subcutaneously (sc) at 3-10 nmol/kg to female beagle dogs (10 months old), followed by sc injections with Y2R agonist ((4-imidazolecarbonyl-Ser-D-Hyp-Iva-Pya(4)-Cha-Leu(Me)-Asn-Lys-Aib-Thr-Arg-Gln-Arg-Cha-NH2), […]), […]) at 1 hour or specified hours in the table postdose. Emetic episodes were counted for 2 hours after administration (by blinded analysis).

A word on the solubility: it is how much of the substance goes into solution per volume. High values mean much dissolved substance, low ones little dissolved substance.

Where two headings read alike, the source gives them in different places.

For the compound `CC[C@H](C)[C@H](NC(=O)[C@H](CO)NC(=O)[C@H](Cc1ccc(O)cc1)NC(=O)[C@H](CC(=O)O)NC(=O)[C@H](CO)NC(=O)[C@@H](NC(=O)[C@H](Cc1ccccc1)NC(=O)[C@@H](NC(=O)CNC(=O)[C@H](CCC(=O)O)NC(=O)C(C)(C)NC(=O)[C@H](Cc1ccc(O)cc1)NC)[C@@H](C)O)[C@@H](C)CC)C(=O)N[C@@H](C)C(=O)N[C@@H](CC(C)C)C(=O)N[C@@H](CC(=O)O)C(=O)N[C@@H](CCCNC(=N)N)C(=O)N[C@@H](CCCCNC(=O)CNC(=O)CNC(=O)CNC(=O)CNC(=O)CNC(=O)CCCCCCCCCCCCCCCCC(=O)O)C(=O)N[C@@H](C)C(=O)N[C@@H](CCC(N)=O)C(=O)NC(C)(C)C(=O)N[C@@H](CC(=O)O)C(=O)N[C@@H](Cc1ccccc1)C(=O)N[C@H](C(=O)N[C@@H](CC(N)=O)C(=O)N[C@@H](Cc1c[nH]c2ccccc12)C(=O)N[C@@H](CC(C)C)C(=O)N[C@@H](CC(C)C)C(=O)N[C@@H](C)C(=O)N[C@@H](CCC(N)=O)C(=O)N[C@@H](CO)C(=O)N1CCC[C@H]1C(=O)N[C@@H](CO)C(=O)N[C@@H](CO)C(=O)NCC(=O)N[C@@H](C)C(=O)N1CCC[C@H]1C(=O)N1CCC[C@H]1C(=O)N1CCC[C@H]1C(=O)N[C@@H](CO)C(N)=O)C(C)C` [Compound 50, Me-Y-Aib-E-G-T-F-I-S-D-Y-S-I-A-L-D-R-Km-A-Q-Aib-D-F-V-N-W-L-L-A-Q-S-P-S-S-G-A-P-P-P-S-NH2], the “% inhibition of emetic events at doses (nmol/kg) shown in dog apomorphine model” value in series [1] (after 8 hrs (upper)) is listed as 82% (30 nmol/kg); in series [1] (after 72 hours (lower)), 86% (30 nmol/kg). For the same compound, the solubility is not below 15 mg/mL in series [2] (pH 7.4) and not below 60 mg/mL in series [2] (pH 7.4, aqueous buffer). The “Inhibition (%) of PYY-1119-induced emetic event” value in series [3] is 97% (3 nmol/kg).

For the origin of these results see patent US20230143604A1, “QW DOSING OF GIP RECEPTOR AGONIST PEPTIDE COMPOUNDS AND USES THEREOF” (TAKEDA PHARMACEUTICAL COMPANY LIMITED, priority 2020, published 2023).
